Consider 16 compounds from paper PMC5630639 (Scientific Reports, 2017).

Bounds are passed on as bounds.

Data set [1] concerns MGC-803 cells. Kind of data set: CCK-8 proliferation assay, MGC-803. It is filed as cell-based, human. The conditions noted are these: 48 h, CCK-8, mean ± SD. On the procedure:
(§1) All synthesized β-lactam-azide derivatives were evaluated for their antiproliferative activity against three cancer cell lines (MGC-803, MCF-7, A549) using CCK-8 proliferation assay. The well-known anticancer drug CA-4P was used as a control[36],[37].
(§2) MGC-803 cell line was obtained from the Chinese Academy of Sciences (Shanghai, China). MCF-7 and A549 were from the National Cell Center, China. MGC-803 cells were cultured in DMEM culture medium (DMEM, Biological Industries, Kibbutz Beit Haemek, Israel). A549 and MCF-7 cells were cultured in 1640 medium (1640, Biological Industries, Kibbutz Beit Haemek, Israel). All medium were supplemented with 10% fetal bovine serum, 100 U/ml penicillin (North China Pharmaceutical group Co.), and 100 µg/ml streptomycin (North China Pharmaceutical group Co.). All cells were cultured at 37 °C in a humidified incubator containing 5% CO2.
(§3) Synthesized analogues used in the study were dissolved in 100% cell culture grade DMSO and the final concentration of DMSO as <0.1% for testing on cancer cell lines. Cytotoxicity assays were performed on the human gastric carcinoma cell line MGC-803, the human mammary carcinoma cell line MCF-7, the human lung carcinoma cell line A549. Cells (3500–5000/well) were seeded into 96-well plates in 100 µL of culture medium. The cells were treated in triplicate with a gradient concentration of testing compounds and incubated at 37 °C, 5% CO2 for 48 h. For all cell lines, CCK-8 assay was performed to measure cytotoxic effects. The absorbance was measured using a microplate reader (BioTek Instrument, Inc. Vermont, USA) with a test wavelength of 450 nm. The absorbance levels were corrected against untreated control absorbance values. All experiments were performed in triplicate and SPSS17.0 was used for data analysis to obtain IC50 values.
For orientation: Formazan colour is commonly taken as a measure of viable cells.

The test system of data set [2] is MCF-7 cells. Nature of the data set: CCK-8 proliferation assay, MCF-7. The class given is cell-based, human. The settings on record: 48 h, CCK-8, mean ± SD. On the procedure:
as §1, §2, §3

The subject of data set [3] is A549 cells. Kind of data set: CCK-8 proliferation assay, A549. The class given is cell-based, human. The settings on record: 48 h, CCK-8, mean ± SD. On the procedure:
as §1, §2, §3

The test system of data set [4] is three cancer cell lines (MGC-803, MCF-7, A549). Kind of data set: CCK-8 proliferation assay, three cancer cell lines together. It is filed as cell-based. The settings on record: Homo sapiens, 48 h, read-out: IC50 values toward three cancer cell lines. On the procedure: as §1, §2
Synthesized analogues used in the study were dissolved in 100% cell culture grade DMSO and the final concentration of DMSO as <0.1% for testing on cancer cell lines. […] The absorbance was measured using a microplate reader (BioTek Instrument, Inc. Vermont, USA) with a test wavelength of 450 nm. The absorbance levels were corrected against untreated control absorbance values. […]

Data set [5] deals with MGC-803 xenograft. Kind of data set: MGC-803 xenograft model in nude mice. The class given is in vivo, BALB/c nude mice. The conditions noted are these: 100 mg/kg, intragastric daily. On the procedure:
To evaluate the potential antitumor effects of 28 in vivo, a MGC-803 xenograft model were established in nude mice by subcutaneously injecting MGC-803 cells at its logarithmic phase into the right flank of mice[56]. Tumor bearing mice were then randomly assigned to five groups (control, 100 mg/kg CA-4P, 25, 50, 100 mg/kg 28) with 10 mice per group. Then, the mice were gavaged with saline (control), CA-4P and different concentrations of 28 in saline solution daily. […] At the end of the observation period, mean tumor volumes of control, CA-4P, 25, 50, and 100 mg/kg 28 groups were 1665.98 ± 568.36 mm^3, 642.61 ± 449.92 mm^3, 788.18 ± 435.92 mm^3, 1125.93 ± 668.25 mm^3 and 1273.88 ± 513.69 mm^3, respectively. […] The antitumor activity of 28 in vivo was similar to that of CA-4P.
Animals were treated according to protocols established by the ethics committee of Zhengzhou University and the in vivo experiments were carried out in accordance with the approved guidelines and approved by the ethics committee of Zhengzhou University. BALB/c nude mice (18 g, aged 4–5 weeks) were purchased from Human SJA Laboratory Animal Co. Ltd. (Hunan, China). Mice were subcutaneously implanted with MGC-803 cells (5 × 10^6 cells per mouse) on the right flank of nude mice. Once tumor volumes reached to approximately 100 mm^3, the mice were randomly divided into corresponding saline, CA-4P (100 mg/kg), 28 (100 mg/kg), 28 (50 mg/kg) and 28 (25 mg/kg) treatment groups (n = 10 mice for each group). The treatment groups received intragastric administration of 28 and CA-4P per day for a period of 21 days. Then, the mice were euthanized and tumors isolated and weighed. Their body weights were measured and tumor sizes determined by vernier caliper measurement every other day.

For data set [6], the system named is bladder cancer cells. Further details: method as in PMID 18281555. The conditions noted are these: cited from earlier work.
The subject of data set [7] is tubulin. On the set-up: method as in PMID 11058036. The conditions noted are these: read-out: anti-tubulin activity IC50; cited from earlier work.
For data set [8], the system named is tubulin. Further details: method as in PMID 15588080. The conditions noted are these: cited from earlier work.

With `COc1ccc(N2C(=O)[C@H](c3ccc(Cl)cc3)[C@H]2c2ccc(N=[N+]=[N-])cc2)cc1` (relative stereo) [Compound 14, trans-4-(4-azidophenyl)-3-(4-chlorophenyl)-1-(4-methoxyphenyl)azetidin-2-one], the melting point (as a rule, the temperature, or range, at which the solid turns liquid) was in the range of 147 to 149 °C. In addition, the IC50 (commonly the concentration that gives 50% inhibition) in data set [1] (Homo sapiens, MGC-803) was above 20 µM. Further, the IC50 in data set [2] (Homo sapiens, MCF7) is above 20 µM. In addition, in data set [3] (Homo sapiens, A549), the IC50 was above 20 µM.
With `COc1ccc(N2C(=O)[C@@H](c3ccccc3)[C@@H]2c2ccc(N=[N+]=[N-])cc2)cc1` (relative stereo) [Compound 15, trans-4-(4-azidophenyl)-1-(4-methoxyphenyl)-3-phenylazetidin-2-one], the melting point fell in the range of 114 to 116 °C. In [1] (Homo sapiens, MGC-803), this compound registered an IC50 above 20 µM. This compound also registered an IC50 in [2] (Homo sapiens, MCF7) above 20 µM. In data set [3] (Homo sapiens, A549), this compound had an IC50 above 20 µM.
Compound `COc1cc(N2C(=O)[C@H](c3ccccc3)[C@H]2c2ccc(N=[N+]=[N-])cc2)cc(OC)c1OC` (relative stereo) [Compound 18, trans-4-(4-azidophenyl)-3-phenyl-1-(3,4,5-trimethoxyphenyl)azetidin-2-one] came in with a melting point of 66 to 68 °C. Also, half-maximal inhibition in [1] (Homo sapiens, MGC-803) (IC50) required 0.171 ± 0.051 µM. The compound further had an IC50 in [2] (Homo sapiens, MCF7) of 0.338 ± 0.004 µM. This compound displayed an IC50 in [3] (Homo sapiens, A549) of 1.74 ± 0.145 µM.
In the same order, the values of `COc1cc(N2C(=O)[C@@H](c3ccccc3)[C@@H]2c2cccc(N=[N+]=[N-])c2)cc(OC)c1OC` (relative stereo) [Compound 25, trans-4-(3-azidophenyl)-3-phenyl-1-(3,4,5-trimethoxyphenyl)azetidin-2-one] are 128 to 129 °C, 0.392 ± 0.028 µM, 0.805 ± 0.176 µM and 2.13 ± 0.39 µM.
Regarding `COc1cc(N2C(=O)[C@H](c3cccs3)[C@H]2c2ccc(N=[N+]=[N-])cc2)cc(OC)c1OC` (relative stereo) [Compound 26, trans-4-(4-azidophenyl)-3-(thiophen-2-yl)-1-(3,4,5-trimethoxyphenyl)azetidin-2-one], the IC50 in data set [1] (Homo sapiens, MGC-803) is 0.251 ± 0.053 µM; in data set [2] (Homo sapiens, MCF7), 0.154 ± 0.019 µM; in data set [3] (Homo sapiens, A549), 4.2 ± 0.186 µM; in [4] it was 0.154 to 4.2 µM.
Take `COc1cc(N2C(=O)[C@@H](c3ccccc3)[C@@H]2c2ccc(-n3cc(COc4cccc([N+](=O)[O-])c4)nn3)cc2)cc(OC)c1OC` (relative stereo) [Compound 29, trans-4-(4-(4-((3-nitrophenoxy)methyl)-1H-1,2,3-triazol-1-yl)phenyl)-3-phenyl-1-(3,4,5-trimethoxyphenyl)azetidin-2-one]: the melting point lay in the range of 142 to 145 °C. Further, the IC50 in [1] (Homo sapiens, MGC-803) is above 20 µM. This compound also gave a half-inhibitory concentration (IC50) in [2] (Homo sapiens, MCF7) above 20 µM. The compound also yielded an IC50 in data set [3] (Homo sapiens, A549) above 20 µM.
For the compound `COc1ccc([C@@H]2C(=O)N(c3cc(OC)c(OC)c(OC)c3)[C@H]2c2ccc(-n3cc(-c4ccccc4)nn3)cc2)cc1` (relative stereo) [Compound 30, trans-3-(4-methoxyphenyl)-4-(4-(4-phenyl-1H-1,2,3-triazol-1-yl)phenyl)-1-(3,4,5-trimethoxyphenyl)azetidin-2-one], the melting point was 90 to 91 °C. In data set [1] (Homo sapiens, MGC-803), the IC50 is above 20 µM. Also, the IC50 in data set [2] (Homo sapiens, MCF7) was above 20 µM. This compound displayed an IC50 in data set [3] (Homo sapiens, A549) above 20 µM.
Turning to `CCN1CCN(C(=S)SCc2cn(-c3ccc([C@@H]4[C@@H](c5ccccc5)C(=O)N4c4cc(OC)c(OC)c(OC)c4)cc3)nn2)CC1` (relative stereo) [Compound 32, (1-(4-(trans-4-oxo-3-phenyl-1-(3,4,5-trimethoxyphenyl)azetidin-2-yl)phenyl)-1H-1,2,3-triazol-4-yl)methyl-4-ethylpiperazine-1-carbodithioate], the IC50 in data set [1] (Homo sapiens, MGC-803) is above 20 µM; in data set [2] (Homo sapiens, MCF7), above 20 µM; in data set [3] (Homo sapiens, A549) it was above 20 µM.
For `COc1ccc(/C=C\c2cc(OC)c(OC)c(OC)c2)cc1OP(=O)(O)O` [CA-4P, reference compound], the IC50 was 0.015 ± 0.001 µM in data set [1], 0.023 ± 0.002 µM in [2] and 0.033 ± 0.007 µM in data set [3]. Further, in data set [5] (21 days), the “inhibitory rate (tumor weight)” value worked out at 63.27%. In [5] (21 days (control 1.23 ± 0.28)), this compound displayed an average tumor weight of 0.45 ± 0.22 g. In addition, in data set [5] (21 days (control 1665.98 ± 568.36)), the “mean tumor volume at end of observation period” value is 642.61 ± 449.92 mm^3.
With `COc1cccc(/C=C/C(=O)N=[N+]=[N-])c1OC` [Compound 1], the “in vitro and in vivo antitumor effect of romidepsin on bladder cancer cells” value in data set [6] is listed as “enhanced”.
On to `COc1cc(/C=C\c2cc(OC)c(OC)c(OC)c2)ccc1N=[N+]=[N-]` [Compound 2], for which the IC50 in data set [7] is 5.2 µM.
With `CC(=O)OC1C(=O)C2(C)C(O)CC3OCC3(OC(C)=O)C2C(OC(=O)c2ccccc2)C2(O)CC(OC(=O)C(O)C(NC(=O)c3ccccc3)c3ccc(N=[N+]=[N-])cc3)C(C)=C1C2(C)C` (stereo not shown) [Compound 3, 3′-(4-Azidophenyl)-3′-dephenylpaclitaxel], in data set [8], the “activity in tubulin assembly and cytotoxicity assays” value is given as “as active as paclitaxel”.
Take `COc1ccc([C@H]2C(=O)N(c3ccc(OC)c(OC)c3)[C@@H]2c2ccc(N=[N+]=[N-])cc2)cc1` [Compound 13, trans-4-(4-azidophenyl)-1-(3,4-dimethoxyphenyl)-3-(4-methoxyphenyl)azetidin-2-one]: the IC50 in data set [1] (Homo sapiens, MGC-803) was above 20 µM; in data set [2] (Homo sapiens, MCF7), above 20 µM; in data set [3] (Homo sapiens, A549), above 20 µM.
Consider `COc1cc(N2C(=O)[C@@](c3ccccc3)(S(=O)(=O)C(F)(F)F)[C@H]2c2ccc(N=[N+]=[N-])cc2)cc(OC)c1OC` [Compound 35, 4-(4-azidophenyl)-3-phenyl-3-((trifluoromethyl)sulfonyl)-1-(3,4,5-trimethoxyphenyl)azetidin-2-one], for which the IC50 in [1] (Homo sapiens, MGC-803) was above 20 µM; in data set [2] (Homo sapiens, MCF7), above 20 µM; in [3] (Homo sapiens, A549), above 20 µM.
Take `COc1cc(N2C(=O)[C@@](c3ccccc3)(S(=O)(=O)C(F)(F)F)[C@H]2c2cccc(N=[N+]=[N-])c2)cc(OC)c1OC` [Compound 36, 4-(3-azidophenyl)-3-phenyl-3-((trifluoromethyl)sulfonyl)-1-(3,4,5-trimethoxyphenyl)azetidin-2-one]: the IC50 is above 20 µM in data set [1] (Homo sapiens, MGC-803); above 20 µM in [2] (Homo sapiens, MCF7); above 20 µM in [3] (Homo sapiens, A549).
With “trans-4-phenyl-3-(thiophen-2-yl)-1-(3,4,5-trimethoxyphenyl)azetidin-2-one [Compound 27]”, the IC50 in data set [1], in [2] and in [3] was above 20 µM in each case.
